From patent publication US20040171073A1, “Compounds for modulation of cholesterol transport” (Massachusetts Institute of Technology, priority 2002, published 2004) come the findings set out here.

The experiment concerns the target T1, murine SR-BI (Mus musculus, UniProt Q61009).
T1 construct: expressed in transfected cells; host or cells: ldlA-7 (LDL receptor deficient Chinese hamster ovary cells)
T1 sequence (Q61009 1-509): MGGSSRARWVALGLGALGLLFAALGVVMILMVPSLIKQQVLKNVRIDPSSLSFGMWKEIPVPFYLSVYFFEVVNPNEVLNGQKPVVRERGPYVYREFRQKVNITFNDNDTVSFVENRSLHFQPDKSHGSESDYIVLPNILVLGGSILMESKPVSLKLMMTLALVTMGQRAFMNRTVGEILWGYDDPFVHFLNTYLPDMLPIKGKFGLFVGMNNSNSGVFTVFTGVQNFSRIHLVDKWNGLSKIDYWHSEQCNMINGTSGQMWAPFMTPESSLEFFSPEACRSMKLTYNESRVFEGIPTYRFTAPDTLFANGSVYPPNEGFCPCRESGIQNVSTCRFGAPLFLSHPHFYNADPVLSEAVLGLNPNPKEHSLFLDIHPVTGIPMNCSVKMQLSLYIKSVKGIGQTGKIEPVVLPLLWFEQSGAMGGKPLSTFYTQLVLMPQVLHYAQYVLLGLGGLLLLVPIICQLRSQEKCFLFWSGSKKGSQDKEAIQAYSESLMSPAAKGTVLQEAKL
Put plainly: Uptake of DiI from DiI-HDL by ldlA[mSR-BI] cells (high throughput screen and concentration dependence). The format is cell-based.

The mark [1] stands for this setting: DiI uptake from DiI-HDL, compounds at nominal 10 micromolar, ldlA[mSR-BI] cells.

The structures appear in SMILES notation.

`O=[N+]([O-])c1ccc(-c2sc(/N=C/c3c(O)ccc4ccccc34)nc2-c2ccc(Cl)cc2)cc1` [MIT 9952-286]: under setting [1], the “ENDOHDL Test 1” value is 0.62 and the “ENDOHDL Test 2” value was found to be 0.64.

In the case of `C=CCN(CC=C)C(=O)Nc1ccccc1` [MIT 9952-251], the “ENDOHDL Test 1” value is 0.52 and the “ENDOHDL Test 2” value turned out to be 0.57.

Turning to `CC1CC2(C)CC(C(=O)O2)C1C(=O)OCCOc1ccccc1` (stereo not shown) [MIT 9952-109], the “ENDOHDL Test 1” value is given as 1.19 and the “ENDOHDL Test 2” value is given as 1.75.

In the case of `Cc1cc(C(=O)N/C=C\c2c(Cl)ccc3ccccc23)[nH]n1` [MIT 9952-38], the “ENDOHDL Test 1” value stood at 0.34 and the “ENDOHDL Test 2” value was 0.52.

In the case of `COc1ccc([N+](=O)[O-])cc1NC(=S)NC(NC(=O)C(c1ccccc1)c1ccccc1)C(Cl)(Cl)Cl` (stereo not shown) [MIT 9952-140], the “ENDOHDL Test 1” value amounted to 0.52 and the “ENDOHDL Test 2” value came out at 0.58.

As to `c1ccc(-c2cc3c(ccc4nonc43)[nH]2)cc1` [MIT 9952-262], the “ENDOHDL Test 1” value is given as 0.53 and the “ENDOHDL Test 2” value is recorded as 0.45.

Take `CN(N)c1nc(-c2ccccc2)cc(-c2ccccc2)n1` [MIT 9952-252]: the “ENDOHDL Test 1” value was determined as 0.58 and the “ENDOHDL Test 2” value is on record as 0.39.

Regarding `CC(=O)C1=C(C)NC(=S)NC1c1ccco1` (stereo not shown) [MIT 9952-264], the “ENDOHDL Test 1” value is 0.45 and the “ENDOHDL Test 2” value is on record as 0.56.

Regarding `O=[N+]([O-])c1ccc(Cl)c(/C=N/c2ccc(S(=O)(=O)c3ccc(/N=C/c4cc([N+](=O)[O-])ccc4Cl)cc3)cc2)c1` [MIT 9952-139], the “ENDOHDL Test 1” value came out at 1.22 and the “ENDOHDL Test 2” value was 1.39.

Take `C/C(CCS(=O)(=O)c1ccc(C)cc1)=N\NC(N)=S` [MIT 9952-225]: the “ENDOHDL Test 1” value turned out to be 0.56 and the “ENDOHDL Test 2” value is 0.59.

Take `O=C(Nc1ccc(NC(=O)c2cccc([N+](=O)[O-])c2)c(Cl)c1)c1cccc([N+](=O)[O-])c1` [MIT 9952-162]: the “ENDOHDL Test 1” value worked out at 0.55 and the “ENDOHDL Test 2” value came out at 0.4.

As for `C/C(=N\Nc1ccc([N+](=O)[O-])cc1)c1ccc([N+](=O)[O-])cc1` [MIT 9952-245], the “ENDOHDL Test 1” value amounted to 0.54 and the “ENDOHDL Test 2” value was 0.64.

For the compound `Clc1ccc(-c2nc3ccc4ccccc4c3c3c2CCCC3)cc1` [MIT 9952-156], the “ENDOHDL Test 1” value was found to be 0.57 and the “ENDOHDL Test 2” value is 0.62.

On to `COc1ccc(/C=C2/S/C(=N/c3ccccc3)NC2=O)c(OC)c1` [MIT 9952-88], for which the “ENDOHDL Test 1” value worked out at 0.73 and the “ENDOHDL Test 2” value amounted to 0.77.

With `Cc1ccc(C(C)C)cc1OCC(=O)N/N=C\c1cc([N+](=O)[O-])ccc1O` [MIT 9952-154], the “ENDOHDL Test 1” value was found to be 0.47 and the “ENDOHDL Test 2” value came out at 0.45.

On to `CCOC(=O)c1c(NC(=O)c2ccc(N)c([N+](=O)[O-])c2)sc2c1CCCC2` [MIT 9952-121], for which the “ENDOHDL Test 1” value was 0.54 and the “ENDOHDL Test 2” value is reported as 0.57.

Turning to `O=C1Nc2ccc([N+](=O)[O-])cc2/C1=N/NC(=O)C1C2CCCCC21` (stereo not shown) [MIT 9952-184], the “ENDOHDL Test 1” value turned out to be 0.6 and the “ENDOHDL Test 2” value is given as 0.58.

Consider `O=C(CNS(=O)(=O)c1ccc([N+](=O)[O-])cc1)N/N=C/c1ccccc1` [MIT 9952-186], for which the “ENDOHDL Test 1” value was found to be 0.5 and the “ENDOHDL Test 2” value was found to be 0.5.

With `COc1cccc(C(=O)Nc2nc3ccc(Cl)cc3s2)c1` [MIT 9952-289], under setting [1], the “ENDOHDL Test 1” value was 0.6 and the “ENDOHDL Test 2” value is reported as 0.64.

As to `COc1ccc(NC(=O)c2cc([N+](=O)[O-])c(C)c([N+](=O)[O-])c2)cc1Cl` [MIT 9952-226], the “ENDOHDL Test 1” value turned out to be 0.5 and the “ENDOHDL Test 2” value worked out at 0.56.

`CCN(CC(O)COc1ccccc1C(C)=O)S(=O)(=O)O.[Na+]` (stereo not shown) [MIT 9952-62]: the “ENDOHDL Test 1” value is recorded as 1.28 and the “ENDOHDL Test 2” value was 1.24.

Consider `COc1ccc(C(=O)Nc2ccc(I)cc2)cc1OC` [MIT 9952-253], for which the “ENDOHDL Test 1” value was 0.59 and the “ENDOHDL Test 2” value was 0.65.

For the compound `CCSC(=O)C(NC1=C(C)C(=O)N1)c1ccccc1` (stereo not shown) [MIT 9952-292], under setting [1], the “ENDOHDL Test 1” value is listed as 0.47 and the “ENDOHDL Test 2” value is 0.58.

For the compound `FC(F)(F)c1cccc(N2N=C(/C=C/c3ccccc3)CC2c2ccccc2)c1` (stereo not shown) [MIT 9952-147], the “ENDOHDL Test 1” value is listed as 0.63 and the “ENDOHDL Test 2” value is given as 0.53.

In the case of `Cc1cc(=O)oc2cc(OCc3ccccc3)c(OCc3ccccc3)cc12` [MIT 9952-218], the “ENDOHDL Test 1” value amounted to 0.64 and the “ENDOHDL Test 2” value turned out to be 0.33.

Regarding `CCNc1ccc(N)c(C)c1C.O=S(=O)(O)O` [MIT 9952-74], the “ENDOHDL Test 1” value was 0.71 and the “ENDOHDL Test 2” value is on record as 0.69.

`O=C(Nc1cccc(Cl)c1)N1CCN(c2ccc([N+](=O)[O-])cc2)CC1` [MIT 9952-256]: the “ENDOHDL Test 1” value came to 0.65 and the “ENDOHDL Test 2” value is 0.92.

With `O=C(Nc1ccc(Cl)cc1)c1ccc(N2C(=O)c3ccc(C(=O)Nc4ccc(Cl)cc4)cc3C2=O)cc1` [MIT 9952-161], the “ENDOHDL Test 1” value turned out to be 1.37 and the “ENDOHDL Test 2” value amounted to 1.5.

On to `O=C(/C=C/c1cccc([N+](=O)[O-])c1)Nc1cccc(C(F)(F)F)c1` [MIT 9952-290], for which, under setting [1], the “ENDOHDL Test 1” value is recorded as 0.52 and the “ENDOHDL Test 2” value was found to be 0.56.

Take `O=C(O/N=C/c1ccc([N+](=O)[O-])o1)c1ccccc1` [MIT 9952-195]: the “ENDOHDL Test 1” value is given as 1.22 and the “ENDOHDL Test 2” value amounted to 1.35.

Consider `Cc1cc(C)c(/C=N/N=C/c2c(C)cc(C)cc2C)c(C)c1` [MIT 9952-69], for which the “ENDOHDL Test 1” value was found to be 1.18 and the “ENDOHDL Test 2” value is 1.32.

For `O=C(Nc1cc(Sc2nc3ccccc3s2)cc([N+](=O)[O-])c1)c1ccc(F)c(F)c1` [MIT 9952-231], the “ENDOHDL Test 1” value was determined as 0.46 and the “ENDOHDL Test 2” value is 0.54.

For the compound `O=C(Nc1cc2c(cc1C(=O)c1ccccc1)OCCO2)c1ccc(Br)cc1` [MIT 9952-188], the “ENDOHDL Test 1” value amounted to 0.61 and the “ENDOHDL Test 2” value amounted to 0.58.

Take `Cc1cccc(C(=O)N/N=C/c2ccccc2Cl)c1` [MIT 9952-194]: the “ENDOHDL Test 1” value was found to be 0.76 and the “ENDOHDL Test 2” value was 0.46.

Take `O=C(Cl)c1ccccc1NS(=O)(=O)/C=C/c1ccccc1` [MIT 9952-110]: the “ENDOHDL Test 1” value is given as 1.17 and the “ENDOHDL Test 2” value was determined as 1.33.

On to `Cc1nc(O)c(C(c2cc([N+](=O)[O-])ccc2O)c2c(O)nc(C)nc2O)c(O)n1` [MIT 9952-82], for which the “ENDOHDL Test 1” value was found to be 1.27 and the “ENDOHDL Test 2” value was found to be 1.4.

As for `COc1ccc2c(c1)c(C(C)=O)c(C)n2-c1ccccc1` [MIT 9952-212], the “ENDOHDL Test 1” value stood at 0.57 and the “ENDOHDL Test 2” value amounted to 0.49.

`O=[N+]([O-])c1cccc(-c2ccc(C(=S)N3CCCCC3)o2)c1` [MIT 9952-282]: under setting [1], the “ENDOHDL Test 1” value came out at 0.49 and the “ENDOHDL Test 2” value is on record as 0.5.

In the case of `CCN1/C(=C\C(=O)c2ccc(C)cc2)Sc2ccccc21` [MIT 9952-295], under setting [1], the “ENDOHDL Test 1” value stood at 0.64 and the “ENDOHDL Test 2” value was found to be 0.58.

Consider `CC(C)(C)c1ccc(C(=O)Nc2ccccc2C(=O)Cl)cc1` [MIT 9952-47], for which the “ENDOHDL Test 1” value is recorded as 1.18 and the “ENDOHDL Test 2” value worked out at 1.37.

In the case of `CO/C(=N\C(NC(=S)Nc1ccc(Br)cc1)C(Cl)(Cl)Cl)c1ccc(C)cc1` (stereo not shown) [MIT 9952-198], the “ENDOHDL Test 1” value is 0.67 and the “ENDOHDL Test 2” value turned out to be 0.64.

For the compound `O=C(NC(NC(=S)Nc1cccc2ccccc12)C(Cl)(Cl)Cl)c1cccc([N+](=O)[O-])c1` (stereo not shown) [MIT 9952-325], under setting [1], the “ENDOHDL Test 1” value was found to be 0.56 and the “ENDOHDL Test 2” value stood at 0.49.

For `O=C(C[n+]1ccc(CCSC2Cc3cccc4cccc2c34)cc1)c1ccc([N+](=O)[O-])cc1` (stereo not shown) [MIT 9952-75], the “ENDOHDL Test 1” value amounted to 0.64 and the “ENDOHDL Test 2” value was 0.71.

Regarding `O=C(/C=C/c1ccccc1)Nc1cccc(Cl)c1Cl` [MIT 9952-263], the “ENDOHDL Test 1” value is recorded as 0.66 and the “ENDOHDL Test 2” value is 0.65.

`O=C(O)c1ccc2c(c1)C(=O)N(c1ccc(C(=O)OCC(=O)c3ccccc3)cc1)C2=O` [MIT 9952-190]: the “ENDOHDL Test 1” value was 1.47 and the “ENDOHDL Test 2” value is reported as 1.35.

As to `O=C1CC(N2CCOCC2)C(=O)N1c1ccc(Br)cc1` (stereo not shown) [MIT 9952-96], the “ENDOHDL Test 1” value was 1.32 and the “ENDOHDL Test 2” value worked out at 1.17.

Consider `CCOC(=O)c1sc(-c2ccccc2)nc1-c1ccc([N+](=O)[O-])cc1` [MIT 9952-165], for which the “ENDOHDL Test 1” value stood at 0.57 and the “ENDOHDL Test 2” value was found to be 0.6.

Consider `NC(=O)N/N=C/c1ccc(-c2ccc([N+](=O)[O-])cc2)o1` [MIT 9952-326], for which, under setting [1], the “ENDOHDL Test 1” value was determined as 0.55 and the “ENDOHDL Test 2” value is on record as 0.53.

Turning to `Nc1ccc(C(=O)Nc2ccc(C3Nc4ccc(SC(=O)c5ccc(N)cc5)c(Cl)c4S3)cc2)cc1` (stereo not shown) [MIT 9952-144], the “ENDOHDL Test 1” value was found to be 0.56 and the “ENDOHDL Test 2” value is 0.56.

Take `O=C(/C=C/c1ccccc1)NC(NC(=S)Nc1cccc([N+](=O)[O-])c1)C(Cl)(Cl)Cl` (stereo not shown) [MIT 9952-100]: the “ENDOHDL Test 1” value was determined as 0.5 and the “ENDOHDL Test 2” value came to 0.51.
